Activity calls are given as the source filed them. The rule behind the calls is not given here.
Experiments:
Type in all cases: functional
Staphylococcus aureus = assay: Antibacterial activity against Staphylococcus aureus by paper disk diffusion method
Escherichia coli = assay: Antibacterial activity against Escherichia coli by paper disk diffusion method
Pseudomonas aeruginosa = assay: Antibacterial activity against Pseudomonas aeruginosa NJ94 by paper disk diffusion method

SMILES	inhibition zone (IZ) (Staphylococcus aureus)	inhibition zone (IZ) (Escherichia coli)	Activity (Pseudomonas aeruginosa)	Activity (Staphylococcus aureus)	Activity (Escherichia coli)	inhibition zone (IZ) (Pseudomonas aeruginosa)
CC(=O)OC[C@@]12[C@@H](OC(C)=O)C[C@@H](C)[C@](C)([C@@H]3C[C@H]4C[C@H](O)O[C@H]4O3)[C@H]1CCC[C@]21CO1	1.2 mm	1.2 mm	inactive			
CO[C@H]1C[C@@H]2C[C@@H]([C@@]3(C)[C@H](C)C[C@H](OC(C)=O)[C@]4(COC(C)=O)[C@@H]3CCC[C@]43CO3)O[C@@H]2O1			inactive	inactive	inactive	
CC[C@@H](C)C(=O)O[C@H]1[C@H](O)C[C@@H]2[C@@](C)([C@@H]3C[C@H]4C[C@@H](OC)O[C@H]4O3)[C@H](C)C[C@H](OC(C)=O)[C@@]2(COC(C)=O)[C@@]12CO2 [LUPULIN A]	1.5 mm	3 mm				3 mm
CC[C@@H](C)C(=O)O[C@H]1CC[C@@H]2[C@@](C)([C@@H]3C[C@H]4C[C@H](OC)O[C@H]4O3)[C@H](C)C[C@H](OC(C)=O)[C@@]2(COC(C)=O)[C@@]12CO2 [LUPULIN B]	1.2 mm	1.2 mm	inactive			
